# Like-named read-outs stand apart in the source and are kept apart here. Marks after values point to notes of the source that are not given here.
# How the values were obtained:
# [1] = system: Salmonella typhimurium TA102; assay: Ames test, antimutagenicity assay, TA102; type: cell-based
# [2] = system: Salmonella typhimurium TA97a; details: TA 97a
# [3] = system: Salmonella typhimurium TA98
# [4] = system: Salmonella typhimurium TA97a; details: for % inhibition / Number of revertants(M ± SD)/ plate: TA 97a
# [5] = system: S. typhimurium strains TA98, TA100, TA102 and TA97a; details: HK 9.7 - 78.0 μg/plate, +S9 and −S9
# epimastigote forms = details: compared with benznidazole; cited from earlier work
# [6] = TA 102, + S9, HK 19.5 μg/plate + 2-AF 10.0 μg/plate
# [7] = TA 102, + S9, HK 39.0 μg/plate + 2-AF 10.0 μg/plate
# [8] = TA 102, + S9, HK 58.5 μg/plate + 2-AF 10.0 μg/plate
# [9] = TA 102, + S9, HK 78.0 μg/plate + 2-AF 10.0 μg/plate
# [10] = TA 102, - S9, HK 58.5 μg/plate + MMC 0.5 μg/plate
# [11] = TA 102, - S9, HK 78.0 μg/plate + MMC 0.5 μg/plate
# [12] = TA 98, − S9, HK 19.5 μg/plate + NOPD 10.0 μg/plate
# [13] = TA 98, − S9, HK 39.0 μg/plate + NOPD 10.0 μg/plate
# [14] = TA 98, − S9, HK 58.5 μg/plate + NOPD 10.0 μg/plate
# [15] = TA 98, − S9, HK 78.0 μg/plate + NOPD 10.0 μg/plate
# [16] = TA 98, − S9, HK […] + NOPD 10.0 μg/plate
# [17] = + S9, HK 19.5 μg/plate + 2-AA 1.25 μg/plate
# [18] = + S9, HK 39.0 μg/plate + 2-AA 1.25 μg/plate
# [19] = + S9, HK 58.5 μg/plate + 2-AA 1.25 μg/plate
# [20] = + S9, HK 78.0 μg/plate + 2-AA 1.25 μg/plate
# [21] = + S9, HK […] + 2-AA 1.25 μg/plate
smiles,measurement,setting,value
"O=C1OC[C@H](Cc2ccc3c(c2)OCO3)[C@H]1Cc1ccc2c(c1)OCO2 [HK, (−)-hinokinin]",Number of revertants(M ± SD)/ plate,[1],852 + 21 revertants/plate
same,% inhibition,[1]; [6],42*** %
same,Number of revertants(M ± SD)/ plate,[1]; [6],855 + 22 revertants/plate
same,% inhibition,[1]; [7],46*** %
same,Number of revertants(M ± SD)/ plate,[1]; [7],820 + 19 revertants/plate
same,% inhibition,[1]; [8],52*** %
same,Number of revertants(M ± SD)/ plate,[1]; [8],754 + 9 revertants/plate
same,% inhibition,[1]; [9],52*** %
same,Number of revertants(M ± SD)/ plate,[1]; [9],757 + 29 revertants/plate
same,% inhibition,"[1]; TA 102, + S9, HK […] + 2-AF 10.0 μg/plate",42*** %
same,decrease in the mutagenicity of 2-AF,"[1]; TA102, +S9, dose not given",52%
same,Number of revertants(M ± SD)/ plate,"[1]; TA 102, - S9, HK 19.5 μg/plate + MMC 0.5 μg/plate",1201 + 23 revertants/plate
same,Number of revertants(M ± SD)/ plate,"[1]; TA 102, - S9, HK 39.0 μg/plate + MMC 0.5 μg/plate",1317 + 14 revertants/plate
same,% inhibition,[1]; [10],18* %
same,Number of revertants(M ± SD)/ plate,[1]; [10],1017 + 56 revertants/plate
same,% inhibition,[1]; [11],22* %
same,Number of revertants(M ± SD)/ plate,[1]; [11],979 + 51 revertants/plate
same,Number of revertants(M ± SD)/ plate,"[1]; TA 102, - S9, HK […] + MMC 0.5 μg/plate",1236 + 17 revertants/plate
same,effect on mutagenesis induced by MMC,"[1]; TA102, absence of metabolic activation",did not reduce mutagenesis
same,MI (mutagenicity index),"[2]; + S9, HK 19.5 μg/plate",1.1
same,Number of revertants(M ± SD)/ plate,"[2]; + S9, HK 19.5 μg/plate",187 ± 3 revertants/plate
same,MI (mutagenicity index),"[2]; + S9, HK 39.0 μg/plate",1.0
same,Number of revertants(M ± SD)/ plate,"[2]; + S9, HK 39.0 μg/plate",166 ± 5 revertants/plate
same,MI (mutagenicity index),"[2]; + S9, HK 58.5 μg/plate",1.0
same,Number of revertants(M ± SD)/ plate,"[2]; + S9, HK 58.5 μg/plate",172 ± 2 revertants/plate
same,MI (mutagenicity index),"[2]; + S9, HK 78.0 μg/plate",0.9
same,Number of revertants(M ± SD)/ plate,"[2]; + S9, HK 78.0 μg/plate",146 ± 4 revertants/plate
same,MI (mutagenicity index),"[2]; - S9, HK 39.0 μg/plate",0.9
same,Number of revertants(M ± SD)/ plate,"[2]; - S9, HK 39.0 μg/plate",146 ± 5 revertants/plate
same,MI (mutagenicity index),"[2]; - S9, HK 58.5 μg/plate",1.1
same,Number of revertants(M ± SD)/ plate,"[2]; - S9, HK 58.5 μg/plate",175 ± 4 revertants/plate
same,MI (mutagenicity index),"[2]; - S9, HK 78.0 μg/plate",1.0
same,Number of revertants(M ± SD)/ plate,"[2]; - S9, HK 78.0 μg/plate",163 ± 8 revertants/plate
same,% inhibition,"[3]; TA 98, + S9, HK 19.5 μg/plate + B[a]P 1.0 μg/plate",32** %
same,% inhibition,"[3]; TA 98, + S9, HK 39.0 μg/plate + B[a]P 1.0 μg/plate",36** %
same,% inhibition,"[3]; TA 98, + S9, HK 58.5 μg/plate + B[a]P 1.0 μg/plate",52*** %
same,% inhibition,"[3]; TA 98, + S9, HK 78.0 μg/plate + B[a]P 1.0 μg/plate",59*** %
same,% inhibition,"[3]; TA 98, + S9, HK […] + B[a]P 1.0 μg/plate",31** %
same,% inhibition,[3]; [12],21* %
same,Number of revertants(M ± SD)/ plate,[3]; [12],507 + 15 revertants/plate
same,% inhibition,[3]; [13],26** %
same,Number of revertants(M ± SD)/ plate,[3]; [13],477 + 5 revertants/plate
same,% inhibition,[3]; [14],19* %
same,Number of revertants(M ± SD)/ plate,[3]; [14],521 + 9 revertants/plate
same,% inhibition,[3]; [15],25** %
same,Number of revertants(M ± SD)/ plate,[3]; [15],480 + 16 revertants/plate
same,% inhibition,[3]; [16],18* %
same,Number of revertants(M ± SD)/ plate,[3]; [16],525 + 7 revertants/plate
same,% inhibition,[4]; [17],45*** %
same,Number of revertants(M ± SD)/ plate,[4]; [17],659 + 41 revertants/plate
same,% inhibition,[4]; [18],49*** %
same,Number of revertants(M ± SD)/ plate,[4]; [18],628 + 16 revertants/plate
same,% inhibition,[4]; [19],67*** %
same,Number of revertants(M ± SD)/ plate,[4]; [19],456 + 13 revertants/plate
same,% inhibition,[4]; [20],60*** %
same,Number of revertants(M ± SD)/ plate,[4]; [20],523 + 86 revertants/plate
same,% inhibition,[4]; [21],43*** %
same,Number of revertants(M ± SD)/ plate,[4]; [21],682 + 52 revertants/plate
same,Number of revertants(M ± SD)/ plate,"[4]; - S9, HK 19.5 μg/plate + NOPD 10.0 μg/plate",948 + 24 revertants/plate
same,Number of revertants(M ± SD)/ plate,"[4]; - S9, HK 39.0 μg/plate + NOPD 10.0 μg/plate",979 + 84 revertants/plate
same,Number of revertants(M ± SD)/ plate,"[4]; - S9, HK 58.5 μg/plate + NOPD 10.0 μg/plate",1006 + 54 revertants/plate
same,Number of revertants(M ± SD)/ plate,"[4]; - S9, HK 78.0 μg/plate + NOPD 10.0 μg/plate",1026 + 75 revertants/plate
same,Number of revertants(M ± SD)/ plate,"[4]; - S9, HK […] + NOPD 10.0 μg/plate",934 + 33 revertants/plate
same,effect on mutagenesis induced by NOPD,"[4]; TA97a, absence of metabolic activation",did not reduce mutagenesis
same,potentiation of NOPD-induced effect (revertants vs positive control alone),"[4]; strain 97a, −S9, HK + NOPD",potentiated NOPD -induced clastogenicity
same,mutagenic activity (number of revertant colonies relative to the negative control),[5],did not induce any increase in the number of revertant colonies
same,trypanosomicidal activity against epimastigote forms,epimastigote forms,higher trypanosomicidal activity than benznidazole

# From PMC3545969, “Mutagenicity and antimutagenicity of (−)-hinokinin a trypanosomicidal compound measured by Salmonella microsome and comet assays” (BMC Complementary and Alternative Medicine, 2012)
